{"source": "PubChem BioAssay (NCI)", "assay_in_all_cases": "NCI tumour cell line growth inhibition, 48 h", "key": {"786-0 renal": {"tested_on": "786-0 renal"}, "A498 renal": {"tested_on": "A498 renal"}, "A549 NSCLC": {"tested_on": "A549 NSCLC"}, "ACHN renal": {"tested_on": "ACHN renal"}, "BT-549 breast": {"tested_on": "BT-549 breast"}, "CAKI-1 renal": {"tested_on": "CAKI-1 renal"}, "CCRF-CEM leukemia": {"tested_on": "CCRF-CEM leukemia"}, "COLO 205 colon": {"tested_on": "COLO 205 colon"}, "DU-145 prostate": {"tested_on": "DU-145 prostate"}, "EKVX NSCLC": {"tested_on": "EKVX NSCLC"}, "HCC-2998 colon": {"tested_on": "HCC-2998 colon"}, "HCT-116 colon": {"tested_on": "HCT-116 colon"}, "HCT-15 colon": {"tested_on": "HCT-15 colon"}, "HL-60(TB) leukemia": {"tested_on": "HL-60(TB) leukemia"}, "HOP-62 NSCLC": {"tested_on": "HOP-62 NSCLC"}, "HOP-92 NSCLC": {"tested_on": "HOP-92 NSCLC"}, "HS 578T breast": {"tested_on": "HS 578T breast"}, "HT29 colon": {"tested_on": "HT29 colon"}, "IGROV1 ovarian": {"tested_on": "IGROV1 ovarian"}, "K-562 leukemia": {"tested_on": "K-562 leukemia"}, "KM12 colon": {"tested_on": "KM12 colon"}, "LOX IMVI melanoma": {"tested_on": "LOX IMVI melanoma"}, "M14 melanoma": {"tested_on": "M14 melanoma"}, "MALME-3M melanoma": {"tested_on": "MALME-3M melanoma"}, "MCF7 breast": {"tested_on": "MCF7 breast"}, "MDA-MB-231 breast": {"tested_on": "MDA-MB-231 breast"}, "MDA-MB-435": {"tested_on": "MDA-MB-435"}, "MOLT-4 leukemia": {"tested_on": "MOLT-4 leukemia"}, "NCI-H226 lung": {"tested_on": "NCI-H226 lung"}}, "note": "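Five compound concentrations were applied to cells in 96-well plates for 48 hours; endpoints were derived by simple linear interpolation of the resulting dose-response curve. GI50: concentration for 50% inhibition of growth. TGI denotes the concentration required for complete inhibition of growth.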", "data": [{"smiles": "CCOc1nccc2c1nc(-c1nonc1N)n2CC", "values": [{"measurement": "GI50", "setting": "786-0 renal", "value": "> 25", "unit": "µM"}, {"measurement": "TGI", "setting": "786-0 renal", "value": "> 25", "unit": "µM"}, {"measurement": "GI50", "setting": "A498 renal", "value": 24.5, "unit": "µM"}, {"measurement": "TGI", "setting": "A498 renal", "value": "> 25", "unit": "µM"}, {"measurement": "GI50", "setting": "A549 NSCLC", "value": "> 25", "unit": "µM"}, {"measurement": "TGI", "setting": "A549 NSCLC", "value": "> 25", "unit": "µM"}, {"measurement": "GI50", "setting": "ACHN renal", "value": "> 25", "unit": "µM"}, {"measurement": "TGI", "setting": "ACHN renal", "value": "> 25", "unit": "µM"}, {"measurement": "GI50", "setting": "BT-549 breast", "value": "> 25", "unit": "µM"}, {"measurement": "TGI", "setting": "BT-549 breast", "value": "> 25", "unit": "µM"}, {"measurement": "GI50", "setting": "CAKI-1 renal", "value": "> 25", "unit": "µM"}, {"measurement": "TGI", "setting": "CAKI-1 renal", "value": "> 25", "unit": "µM"}, {"measurement": "GI50", "setting": "CCRF-CEM leukemia", "value": "> 25", "unit": "µM"}, {"measurement": "TGI", "setting": "CCRF-CEM leukemia", "value": "> 25", "unit": "µM"}, {"measurement": "GI50", "setting": "COLO 205 colon", "value": "> 25", "unit": "µM"}, {"measurement": "TGI", "setting": "COLO 205 colon", "value": "> 25", "unit": "µM"}, {"measurement": "GI50", "setting": "DU-145 prostate", "value": "> 25", "unit": "µM"}, {"measurement": "TGI", "setting": "DU-145 prostate", "value": "> 25", "unit": "µM"}, {"measurement": "GI50", "setting": "EKVX NSCLC", "value": "> 25", "unit": "µM"}, {"measurement": "TGI", "setting": "EKVX NSCLC", "value": "> 25", "unit": "µM"}, {"measurement": "GI50", "setting": "HCC-2998 colon", "value": "> 25", "unit": "µM"}, {"measurement": "TGI", "setting": "HCC-2998 colon", "value": "> 25", "unit": "µM"}, {"measurement": "GI50", "setting": "HCT-116 colon", "value": "> 25", "unit": "µM"}, {"measurement": "TGI", "setting": "HCT-116 colon", "value": "> 25", "unit": "µM"}, {"measurement": "GI50", "setting": "HCT-15 colon", "value": "> 25", "unit": "µM"}, {"measurement": "TGI", "setting": "HCT-15 colon", "value": "> 25", "unit": "µM"}, {"measurement": "GI50", "setting": "HL-60(TB) leukemia", "value": "> 25", "unit": "µM"}, {"measurement": "TGI", "setting": "HL-60(TB) leukemia", "value": "> 25", "unit": "µM"}, {"measurement": "GI50", "setting": "HOP-62 NSCLC", "value": "> 25", "unit": "µM"}, {"measurement": "TGI", "setting": "HOP-62 NSCLC", "value": "> 25", "unit": "µM"}, {"measurement": "GI50", "setting": "HOP-92 NSCLC", "value": 1.17, "unit": "µM"}, {"measurement": "TGI", "setting": "HOP-92 NSCLC", "value": "> 25", "unit": "µM"}, {"measurement": "GI50", "setting": "HS 578T breast", "value": "> 25", "unit": "µM"}, {"measurement": "TGI", "setting": "HS 578T breast", "value": "> 25", "unit": "µM"}, {"measurement": "GI50", "setting": "HT29 colon", "value": "> 25", "unit": "µM"}, {"measurement": "TGI", "setting": "HT29 colon", "value": "> 25", "unit": "µM"}, {"measurement": "GI50", "setting": "IGROV1 ovarian", "value": "> 25", "unit": "µM"}, {"measurement": "TGI", "setting": "IGROV1 ovarian", "value": "> 25", "unit": "µM"}, {"measurement": "GI50", "setting": "K-562 leukemia", "value": "> 25", "unit": "µM"}, {"measurement": "TGI", "setting": "K-562 leukemia", "value": "> 25", "unit": "µM"}, {"measurement": "GI50", "setting": "KM12 colon", "value": "> 25", "unit": "µM"}, {"measurement": "TGI", "setting": "KM12 colon", "value": "> 25", "unit": "µM"}, {"measurement": "GI50", "setting": "LOX IMVI melanoma", "value": "> 25", "unit": "µM"}, {"measurement": "TGI", "setting": "LOX IMVI melanoma", "value": "> 25", "unit": "µM"}, {"measurement": "GI50", "setting": "M14 melanoma", "value": "> 25", "unit": "µM"}, {"measurement": "TGI", "setting": "M14 melanoma", "value": "> 25", "unit": "µM"}, {"measurement": "GI50", "setting": "MALME-3M melanoma", "value": "> 25", "unit": "µM"}, {"measurement": "TGI", "setting": "MALME-3M melanoma", "value": "> 25", "unit": "µM"}, {"measurement": "GI50", "setting": "MCF7 breast", "value": "> 25", "unit": "µM"}, {"measurement": "TGI", "setting": "MCF7 breast", "value": "> 25", "unit": "µM"}, {"measurement": "GI50", "setting": "MDA-MB-231 breast", "value": "> 25", "unit": "µM"}, {"measurement": "TGI", "setting": "MDA-MB-231 breast", "value": "> 25", "unit": "µM"}, {"measurement": "GI50", "setting": "MDA-MB-435", "value": "> 25", "unit": "µM"}, {"measurement": "TGI", "setting": "MDA-MB-435", "value": "> 25", "unit": "µM"}, {"measurement": "GI50", "setting": "MOLT-4 leukemia", "value": "> 25", "unit": "µM"}, {"measurement": "TGI", "setting": "MOLT-4 leukemia", "value": "> 25", "unit": "µM"}, {"measurement": "GI50", "setting": "NCI-H226 lung", "value": "> 23.1", "unit": "µM"}]}]}
